Results taken from ChEMBL document CHEMBL4428105, “Conformational and electrostatic analysis of SN1 donor analogue glycomimetic inhibitors of ST3Gal-I mammalian sialyltransferase” (Bioorg Med Chem, 2016).

Test: Inhibition of rat recombinant ST3Gal-1 using CMP-Neu5Ac as substrate after 20 mins by fluorescence based reverse phase HPLC analysis

IC50 [mM] | SMILES
0.047 | CC(=O)N[C@H]1[C@H]([C@H](O)[C@H](O)CO)O[C@](CCP(=O)(O)OC[C@H]2O[C@@H](n3ccc(N)nc3=O)[C@H](O)[C@@H]2O)(C(=O)O)C[C@@H]1O
3.3 | CC(=O)N[C@H]1[C@H]([C@H](O)[C@H](O)CO)O[C@](CCP(=O)(O)OC[C@H]2O[C@@H](n3ccc(N)nc3=O)[C@H](O)[C@@H]2O)(C(N)=O)C[C@@H]1O
4.2 | CC(=O)N[C@H]1[C@H]([C@H](O)[C@H](O)CO)O[C@@](CO)(CCP(=O)(O)OC[C@H]2O[C@@H](n3ccc(N)nc3=O)[C@H](O)[C@@H]2O)C[C@@H]1O
